Laboratory results reported in article PMC3466213, “Discovery of Novel Orally Active Anti-Inflammatory N-Phenylpyrazolyl-N-Glycinyl-Hydrazone Derivatives That Inhibit TNF-α Production” (PLoS ONE, 2012).
Entries after “also recorded” stand apart in the source; their conditions may differ.

Key:
TNF-α production = assay: LPS-induced TNF-α production in culture of mice peritoneal macrophage (ELISA); type: cell-based; settings: for IC50: mouse peritoneal macrophages, at least five concentrations, range tested in parentheses, read-out: TNF-α Inhibition IC50; for inhibition at 10 µM: read-out: TNF-α Inhibition, % inhibition at 10 µM, mouse peritoneal macrophages, 10 µM, vs vehicle (DMSO), n = 3
Description: BALBc mice were stimulated with thyoglicollate 3% (1 mL/mice; i.p.) and 3 days later the peritoneal cavity were washed with RPMI 1640 and the peritoneal macrophages were plated onto 96-wells plate (30.000 cells/well) for 1 hour at 37°C in an humidified 5% CO2 atmophere. Then, macrophages were incubated with the vehicle or compounds and 1 hour later stimulated with LPS (100 ng/mL) for 24 hour when the supernatants were collected to evaluate TNF-α production by ELISA kit (BD Bioscience).

p38α MAPK = p38α MAPK (Homo sapiens, UniProt Q16539); assay: In vitro p38α MAPK activity inhibition (nonradioactive immunosorbent assay, ref 23); type: biochemical
Chain of p38α MAPK (Q16539 whole entry): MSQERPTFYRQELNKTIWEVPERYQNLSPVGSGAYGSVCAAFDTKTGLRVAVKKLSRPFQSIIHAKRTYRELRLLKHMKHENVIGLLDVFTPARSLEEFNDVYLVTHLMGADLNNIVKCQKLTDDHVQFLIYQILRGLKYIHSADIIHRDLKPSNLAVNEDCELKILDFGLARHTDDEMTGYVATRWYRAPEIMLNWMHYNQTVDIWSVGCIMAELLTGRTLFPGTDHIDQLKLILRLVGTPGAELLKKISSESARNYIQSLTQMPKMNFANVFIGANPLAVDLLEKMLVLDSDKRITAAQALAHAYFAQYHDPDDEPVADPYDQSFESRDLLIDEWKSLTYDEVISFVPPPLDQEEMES
Description: Because the novel N-acylhydrazone derivatives 4a–g were designed based on the p38α MAPK inhibitor BIRB-796 (3), they were all evaluated for their in vitro capacity to inhibit p38α MAPK activity at a concentration of 10 µM.
*This assay was performed as described in reference 23.

[1] = Cell viability by MTT assay; type: cell-based; settings: mouse, murine peritoneal macrophages, vs vehicle (DMSO)
Description: The peritoneal macrophage were obtained and plated as described above. The cells were incubated with the vehicle or compounds for 20 hours when was added 20 µl of MTT (3-(4,5-dimethylthiazol-2-yl)-2,5-diphenyltetrazolium bromide) solution (5 mg/mL), followed by 4 hour of incubation. Then, the culture mediums were collected and the precipitates were solubilized in 200 µl of DMSO. The optical density was measured at 490 nm.

[2] = system: TNF-α level in carrageenan-injected paws; assay: TNF-α level in carrageenan-injected paws (ELISA); type: in vivo; settings: rat paw, 4 h after carrageenan, 100 µmol/kg p.o.
Description: (§1) Wistar rats of both sexes (150–200g) were used. The compounds were administered orally (100 µmol.5mL-1.kg-1) as a suspension in 5% arabic gum in saline (vehicle). Control animals received an equal volume of vehicle. One hour later, the animals were injected with either 0.1 ml of 1% carrageenan solution in saline or sterile saline (NaCl 0.9%), into the subplantar surface of one of the hind paws. The thermal hypernociception was determined using the modified hot-plate test. Rats are placed individually on a hot plate with the temperature adjusted to 51°C. The latency of the withdrawal response of the left hind paw is determined at 0, 30, 60, 120, 180, and 240 min post-challenge. The time of maximum permanence permitted on the hot surface is 20 s. Hypernociception to heat is defined as a decrease in withdrawal latency and calculated as follows: Δ paw withdrawal latency (s) = (left paw withdrawal latency at time 0) – (left paw withdrawal latency at the others times).
The paw was homogenized 4 h after intraplantar injection of carrageenan, and the level of TNF-α in the supernatant was determined by ELISA.

[3] = system: carrageenan-induced thermal hypernociception; assay: Carrageenan-induced thermal hypernociception (modified hot-plate test); type: in vivo, rat; settings: rats, 100 µmol/kg p.o.
Description: as §1

[4] = Aqueous solubility in phosphate buffer (HPLC-UV); type: physicochemical
Description: (§2) The organic fraction was analyzed with the Shimadzu Prominence HPLC system (Shimadzu, Tokio, Japan) consisting of a vacuum degasser (DGU-20A5), a binary pump (LC-20AD), a autosampler (SIL-20A), UV/VIS Photodiode Array Detector (SPD-M20A) and fitted with a guard column (CLC G-ODS) and a Shimadzu (CLC-ODS, M) column (250 mm×4.6 mm i.d.) running at room temperature. Isocratic elution was performed with acetonitrile-water (40∶60 v/v), at a flow rate set at 1 mL/min. The mobile phase pH was adjusted to 8.0 with NH4OH solution. The detection was carried out at 285 nm and 330 nm wavelength for compound 4f and 4a, respectively.

Rat plasma stability = type: in vitro ADME; settings: 50 µM; for % Recovered amount after 60 min, rat plasma: 37 °C
Description: The rat plasma was obtained from blood by centrifugation and diluted in phosphate buffer (pH 7.4). The test compounds were added at final concentration of 50 µM with 0.25 mL of final volume and incubated at 37°C for 60 min under agitation. At the end of the incubation time the reaction was stopped by the addition of 375 µL of MeOH and 375 µL of CH3CN. The experiments were performed in duplicate. The samples were centrifuged and filtered for HPLC-UV analysis.
as §2

[5] = Rat liver microsomal stability; type: in vitro ADME; settings: 50 µM, 37 °C, 1 mg/mL protein
Description: The incubation was conducted at 37°C for 60 min. The experiments contains MgCl2 (1.3 mM), NADP+ (0.4 mM), glucose-6-phosphate (3.5 mM), 0.5 U/mL glucose-6-phosphate dehydrogenase in a phosphate buffer (0.1 M, pH 7.4) containing EDTA (1.5 mM) and the test compounds were added at final concentration of 50 µM with 0.25 mL of final volume. After the pre-warming of the mixture at 37 °C, the microsomal proteins were added to give a final protein concentration of 1 mg/mL. At the end of the incubation time the reaction was stopped by the addition of 375 µL of MeOH and 375 µL of CH3CN. The experiments were performed in duplicate. The samples were centrifuged and filtered for HPLC-UV analysis.
as §2

SMILES	IC50 (TNF-α production)	inhibition at 10 µM (TNF-α production)	inhibition at 10 µM (p38α MAPK)	viability at 20 h, 3 µM [1]	viability at 20 h, 10 µM [1]	Suppression of the elevation of tissue TNF-α level [2]	Anti-hypernociceptive effect (in words) [3]	Improvement in aqueous solubility at pH 6.4 (versus pH 7.4) ([4]; pH 6.4 compared with pH 7.4)	Improvement in solubility of 4a compared with 4f at pH 6.4 ([4]; phosphate buffer pH 6.4, 37 °C, 24 h)	Improvement in solubility of 4a compared with 4f at pH 7.4 ([4]; phosphate buffer pH 7.4, 37 °C, 24 h)	melting point	% Recovered amount after 60 min, rat plasma (Rat plasma stability)	Resistance to plasma degradation relative to 4f (Rat plasma stability; rat plasma, 60 min)	% Recovered amount after 60 min, rat liver microsomes [5]
CC(C)(C)c1cc(NCC(=O)N/N=C/c2ccc(OCCN3CCOCC3)c3ccccc23)n(-c2ccccc2)n1 [Compound 4a, (E)-2-(3-tert-butyl-1-phenyl-1H-pyrazol-5-ylamino)-N’-((4-(2-morpholinoethoxy)naphthalen-1-yl)methylene)acetohydrazide]	3.6 µM	96.9%	-5.35%	100%	61.5%	57.3%	comparable to SB-203580; also recorded: completely inhibit the hypernociceptive response	ca. three	ca. 12 times	ca. 5 times	180 °C	40.7%	about four	90.1%
CC(C)(C)c1cc(NCC(=O)N/N=C/c2ccc(O)c3ccccc23)n(-c2ccccc2)n1 [Compound 4b, (E)-2-(3-tert-butyl-1-phenyl-1H-pyrazol-5-ylamino)-N’-((4-hydroxynaphthalen-1-yl)methylene)acetohydrazide]	4.3 µM	75.4%	~30%	100%	100%	–	–	–	–	–	270 °C	–	–	–
CC(C)(C)c1cc(NCC(=O)N/N=C/c2cccc3ccccc23)n(-c2ccccc2)n1 [Compound 4c, (E)-2-(3-tert-butyl-1-phenyl-1H-pyrazol-5-ylamino)-N’-(naphthalen-1-ylmethylene)acetohydrazide]	5.5 µM	61.2%	19.7%	100%	90.4%	–	–	–	–	–	140 °C	–	–	–
CC(C)(C)c1cc(NCC(=O)N/N=C/c2ccc(OCCN3CCOCC3)cc2)n(-c2ccccc2)n1 [Compound 4d, (E)-2-(3-tert-butyl-1-phenyl-1H-pyrazol-5-ylamino)-N’-(4-(2-morpholinoethoxy)benzylidene)acetohydrazide]	–	52.5%	16.4%	100%	100%	–	–	–	–	–	158 °C	–	–	–
CC(C)(C)c1cc(NCC(=O)N/N=C/c2ccc(O)cc2)n(-c2ccccc2)n1 [Compound 4e, (E)-2-(3-tert-butyl-1-phenyl-1H-pyrazol-5-ylamino)-N’-(4-hydroxybenzylidene)acetohydrazide]	–	8.1%	~30%	100%	97.8%	–	–	–	–	–	–	–	–	–
CC(C)(C)c1cc(NCC(=O)N/N=C/c2ccc(Cl)cc2)n(-c2ccccc2)n1 [Compound 4f, (E)-2-(3-tert-butyl-1-phenyl-1H-pyrazol-5-ylamino)-N’-(4-chlorobenzylidene)acetohydrazide]	1.6 µM	93.2%	15.3%	100%	46.6%	55.8%	comparable to SB-203580; also recorded: partially inhibit this response	–	–	–	–	13.3%	–	86.7%
CC(C)(C)c1cc(NCC(=O)N/N=C/c2ccccc2)n(-c2ccccc2)n1 [Compound 4g, (E)-N’-benzylidene-2-(3-tert-butyl-1-phenyl-1H-pyrazol-5-ylamino)acetohydrazide]	–	50.4%	19.5%	100%	99.8%	–	–	–	–	–	–	–	–	–
CC(C)=NNC(=O)CNc1cc(C(C)(C)C)nn1-c1ccccc1 [Compound 9, 2-(3-tert-butyl-1-phenyl-1H-pyrazol-5-ylamino)-N’-(propan-2-ylidene)acetohydrazide]	–	–	–	–	–	–	–	–	–	–	181 to 183 °C	–	–	–
CN(CC(=O)N/N=C/c1ccccc1)c1cc(C(C)(C)C)nn1-c1ccccc1 [Compound 15, (E)-N’-benzylidene-2-((3-tert-butyl-1-phenyl-1H-pyrazol-5-yl)(methyl)amino)acetohydrazide]	–	–	–	–	–	–	–	–	–	–	156 to 158 °C	–	–	–
C[S+]([O-])c1ccc(-c2nc(-c3ccncc3)c(-c3ccc(F)cc3)[nH]2)cc1 (centres unmarked) [SB-203580 (1), SB-203580, reference compound]	–	90%	–	100%	44.3%	–	–	–	–	–	–	–	–	–
